Data reported in article PMC6271131, “Inhibitory Effects of Colocasia esculenta (L.) Schott Constituents on Aldose Reductase” (Molecules, 2014).
In brackets after ≈: the same amount, converted by molar mass. Several values for one entry are separate records, joined by “and”; a condition that tells them apart may be missing. Identical values can stand only once. Like-named read-outs stand apart in the source and are kept apart here.

Key:
[1] = target: T1, rat lens aldose reductase (rAR) (Rattus norvegicus, UniProt P07943); assay: Rat lens aldose reductase (rAR) inhibition, DL-glyceraldehyde substrate, NADPH decrease at 340 nm; assay type: biochemical; conditions: for IC50: Table 2 experiment, read-out: IC50 (rAR), isolated constituents (converted)
T1 construct: The rat lens homogenate was prepared according to the method of Hayman and Kinoshita with some modifications; from tissue; host or cells: lenses of Sprague-Dawley rats (homogenate supernatant)
Method: The rat lens homogenate was prepared according to the method of Hayman and Kinoshita with some modifications. Non-cataractous transparent lenses were pooled and homogenate was prepared in 0.1 M phosphate buffer saline (pH 6.2). After centrifugation at 10,000 rpm for 20 min in a refrigerated centrifuge, the supernatant, which was then collected and as the rAR, all procedures were carried out at 4 °C.
Each 1.0 mL cuvette contained equal units of the enzyme, 0.10 M sodium phosphate buffer (pH 6.2), 0.3 mM NADPH, with or without 10 mM of the substrate and an inhibitor [10, 36].

[2] = ABTS^+ radical assay (antioxidant)
Method: The method of Re et al., [39] was used with slight modifications. ABTS diammonium salt (2 mM) and potassium persulfate (3.5 mM) were mixed, diluted in distilled water and kept in the dark at room temperature for 24 h before use. After addition of ABTS^+ solution to 10 µL of antioxidant compounds were recorded at after 10 min reaction. […] Trolox was used as positive control.

rat erythrocyte = assay: Galactitol accumulation in rat erythrocytes incubated with galactose; assay type: cell-based; conditions: 30 mM galactose; for Rat Erythrocyte Galactitol Content: 5 µg/mL compound, control 86.70 ± 1.61; for decrease of galactitol accumulation in rat erythrocyte: 5 µg/mL
Method: Blood sample was collected in heparin containing polypropylene tube from 10-week-old male rats. For sugar and sugar alcohol analysis, erythrocytes from heparinized blood were separated from the plasma and buffy coat by centrifuging at 2000× g for 10 min. The cells were washed thrice with normal saline (0.9% NaCl) at 4 °C. In the final washing, the cells were centrifuged at 2000× g for 10 min to obtain a consistently packed cell preparation. The packed cells (1 mL) were then incubated in a Krebs-Ringer bicarbonate buffer (pH 7.4) containing 30 mM galactose in the presence or absence of samples at 37 °C in 5% CO2 for 3 h. The erythrocytes were washed with cold saline by centrifuging at 2000× g for 10 min, precipitated by adding 6% of cold perchloric acid (3 mL), and centrifuged again at 2000× g for 10 min. The supernatant was neutralized with 2.5 M K2CO3 at 4 °C and used for galactitol determination. HPLC analysis for sugar and sugar alcohol in blood was performed with this supernatant of red blood cell homogenate after being benzoylated.

[3] = target: T2, recombinant human aldose reductase (rhAR) (Homo sapiens, UniProt P15121); assay: Kinetic analysis of aldose reductase inhibition (Lineweaver-Burk plots); assay type: biochemical
T2 construct: purchased Wako Pure Chemical Industries (Osaka, Japan)
Method: Reaction mixtures consisted of 0.1 M potassium phosphate, 0.16 mM NADPH, […] of recombinant human aldose reductase (rhAR) with varied concentrations of substrate DL-glyceraldehyde and AR inhibitor in a total volume of 200 µL. Concentrations were ranged from 0.1 to 1 mM for DL-glyceraldehyde, from 0.1 to 1 mM for active compound. Recombinant human aldose reductase activity was assayed spectrophotometrically by measuring the decrease in absorption of NADPH at 340 nm after substrate addition using a Bio Tek Power Wave XS spectrophotometer (Bio Tek Instruments, Winooski, VT, USA).

rat lenses = assay: Galactitol accumulation in cultured isolated rat lenses (ex vivo); assay type: cell-based; conditions: for Galactitol Content µg/lens Wet Weight (g): 5 µg/mL compound, control 250.47 ± 5.01; for inhibition at 5 µg/mL: Rattus norvegicus, 144 h, read-out: inhibition of galactitol accumulation in isolated rat lenses
Method: Lenses isolated from 10-week-old male rats were cultured for 6 days in TC-199 medium that contained 15% fetal bovine serum 100 units/mL penicillin and 0.1 mg/mL streptomycin under sterile conditions in an atmosphere of 5% CO2 and 95% air at 37 °C. Samples were dissolved in dimethyl sulfoxide. The lenses were divided into five groups and cultured in medium containing 5 mM glucose, 30 mM galactose and rosmarinic acid or caffeic acid ethylene ester. Each lens was placed in well containing 1.0 mL of medium. Galactitol was determined by HPLC after its derivatization by reaction with benzoic acid to a fluorescent compound [37].

[4] = Table 2, read-out: Inhibition (%) of rAR
[5] = Table 1, read-out: Aldose Reductase Inhibition (%)

SMILES | inhibition at 5 µg/mL ([1]; Table 2) [%] | IC50 [1] | IC50 ([2]; Table 5) [µM] | IC50 (ABTS^+) ([2]; Table 5) [µg/mL] | inhibition at 10 µg/mL ([1]; Table 2) [%] | Inhibition (%) of ABTS^+ ([2]; Table 5, 16.67 µg/mL) [%] | inhibition at 0.5 µg/mL [1, 4] [%] | inhibition at 1 µg/mL [1, 4] [%] | Inhibition (%) of ABTS^+ ([2]; Table 5, 1.67 µg/mL) [%] | Inhibition (%) of ABTS^+ ([2]; Table 5, 3.33 µg/mL) [%] | Inhibition (%) of ABTS^+ ([2]; Table 5, 8.33 µg/mL) [%] | further results
N[C@@H](Cc1c[nH]c2ccccc12)C(=O)O [Compound 1, tryptophan] | – | – | – | – | 20 ± 2.01 | 37.51 ± 2.93 | – | – | – | – | – | –
O=c1cc(-c2ccc(O)c(O)c2)oc2c([C@@H]3O[C@H](CO)[C@@H](O)[C@H](O)[C@H]3O)c(O)cc(O)c12 [Compound 2, orientin] | 94 ± 0.98 | 1.65 µM | 12.5 ± 0.95 | 5.59 ± 0.42 (≈ 12.5 µM) | – | – | 35.3 ± 0.36 | 64.57 ± 0.52 | 17.56 ± 2.21 | 31.76 ± 3.19 | 72.55 ± 4.10 | Rat Erythrocyte Galactitol Content (rat erythrocyte): 72.72 ± 0.98 µM; decrease of galactitol accumulation in rat erythrocyte (rat erythrocyte): 16.1%; type of inhibition ([3]; Lineweaver-Burk plots, Km unchanged, Vmax decreased): noncompetitive inhibitors; Ki ([3]; from secondary Lineweaver-Burk plots, DL-glyceraldehyde 0.1-1 mM, read-out: inhibitory constant (Ki)): 3.23 µM; Galactitol Content µg/lens Wet Weight (g) (rat lenses; 30 mM galactose, 6 days): 227.89 ± 4.52 µg/lens Wet Weight (g); inhibition at 5 µg/mL (rat lenses): 9.1%; effect on polyol accumulation in rat lenses (rat lenses; conclusion statement): prevented the accumulation of sorbitol in rat lenses
O=c1cc(-c2ccc(O)cc2)oc2c([C@@H]3O[C@H](CO)[C@@H](O)[C@H](O)[C@H]3O)c(O)cc(O)c12 [Compound 4, vitexin] | – | – | – | – | 48.5 ± 0.87 | 46.17 ± 2.65 | – | – | – | – | – | –
O=c1cc(-c2ccc(O)cc2)oc2cc(O)c([C@@H]3O[C@H](CO)[C@@H](O)[C@H](O)[C@H]3O)c(O)c12 [Compound 5, isovitexin] | 60.3 ± 0.61 | 7.35 µM and 7.36 µM | – | – | 76.59 ± 0.74 | 44.40 ± 4.91 | – | 23.3 ± 0.25 | – | – | – | –
O=c1cc(-c2ccc(O)c(O)c2)oc2cc(O[C@@H]3O[C@H](CO)[C@@H](O)[C@H](O)[C@H]3O)cc(O)c12 [Compound 6, luteolin-7-O-glucoside] | 61.88 ± 0.6 | 7.47 µM | 17.8 ± 1.51 | 8.00 ± 0.68 (≈ 17.8 µM) | 76.2 ± 0.77 | – | – | 19.1 ± 0.21 | 13.49 ± 1.09 | 22.66 ± 2.47 | 52.11 ± 3.98 | –
C[C@@H]1O[C@@H](OC[C@H]2O[C@@H](Oc3cc(O)c4c(=O)cc(-c5ccc(O)c(O)c5)oc4c3)[C@H](O)[C@@H](O)[C@@H]2O)[C@H](O)[C@H](O)[C@H]1O [Compound 7, luteolin-7-O-rutinoside] | 72.7 ± 0.73 | 2.59 µM | 15.8 ± 0.8 | 9.38 ± 0.47 (≈ 15.8 µM) | – | 79.82 ± 0.67 | 29.9 ± 0.3 | 40.31 ± 0.4 | – | 21.44 ± 1.46 | 49.55 ± 3.91 | –
O=c1c(O)c(-c2ccc(O)c(O)c2)oc2cc(O)cc(O)c12 [Quercetin, quercetin, reference compound] | 81.14 ± 0.81 | – | – | – | – | – | 26.3 ± 0.59 | 48.6 ± 1.44 | – | – | – | Rat Erythrocyte Galactitol Content (rat erythrocyte): 45.17 ± 0.81 µM; decrease of galactitol accumulation in rat erythrocyte (rat erythrocyte): 47.9%; inhibition at 0.5 µg/mL [1, 5]: 31.62 ± 0.09%; inhibition at 1 µg/mL [1, 5]: 48.9 ± 0.51%; inhibition at 2.5 µg/mL [1, 5]: 69.6 ± 0.72%; Galactitol Content µg/lens Wet Weight (g) (rat lenses; 30 mM galactose, 6 days): 241.07 ± 4.57 µg/lens Wet Weight (g); inhibition at 5 µg/mL (rat lenses; 5 µg/mL, 30 mM galactose, 6 days): 3.8%; IC50 ([2]; Table 4): 3.2 ± 0.12 µM; IC50 (ABTS^+) ([2]; Table 4): 0.97 ± 0.04 µg/mL (≈ 3.21 µM); Inhibition (%) of ABTS^+ ([2]; Table 4, 0.33 µg/mL): 22.98 ± 3.55%; Inhibition (%) of ABTS^+ ([2]; Table 4, 0.83 µg/mL): 42.49 ± 3.39%; Inhibition (%) of ABTS^+ ([2]; Table 4, 1.67 µg/mL): 81.36 ± 1.75%
Cc1c(C)c2c(c(C)c1O)CCC(C)(C(=O)O)O2 (centres unmarked) [Trolox, reference compound] | – | – | – | – | – | – | – | – | – | – | – | IC50 ([2]; Table 4): 11.49 ± 0.04 µM; IC50 (ABTS^+) ([2]; Table 4): 2.87 ± 0.01 µg/mL (≈ 11.5 µM); Inhibition (%) of ABTS^+ ([2]; Table 4, 1.67 µg/mL): 27.07 ± 1.15%; Inhibition (%) of ABTS^+ ([2]; Table 4, 3.33 µg/mL): 57.40 ± 2.03%; Inhibition (%) of ABTS^+ ([2]; Table 4, 8.33 µg/mL): 92.92 ± 0.06%

More lines, main results first:

inhibition at 5 µg/mL ([1]; Table 2) [%] | IC50 [1] | IC50 ([2]; Table 5) [µM] | IC50 (ABTS^+) ([2]; Table 5) [µg/mL] | SMILES | inhibition at 10 µg/mL ([1]; Table 2) [%] | Inhibition (%) of ABTS^+ ([2]; Table 5, 16.67 µg/mL) [%] | inhibition at 0.5 µg/mL [1, 4] [%] | inhibition at 1 µg/mL [1, 4] [%] | Inhibition (%) of ABTS^+ ([2]; Table 5, 1.67 µg/mL) [%] | Inhibition (%) of ABTS^+ ([2]; Table 5, 3.33 µg/mL) [%] | Inhibition (%) of ABTS^+ ([2]; Table 5, 8.33 µg/mL) [%] | further results
87.33 ± 0.87 | – | 19.2 ± 1.69 | 6.91 ± 0.61 (≈ 19.2 µM) | O=C(/C=C/c1ccc(O)c(O)c1)O[C@H](Cc1ccc(O)c(O)c1)C(=O)O [Compound 8, rosmarinic acid] | – | – | 18.3 ± 0.19 | 62.79 ± 0.6 | 16.20 ± 3.85 | 23.61 ± 2.27 | 60.25 ± 4.66 | –
– | – | 37.4 ± 0.64 | 13.31 ± 0.23 (≈ 37.4 µM) | COc1cc(C=CC(=O)OC2OC(CO)C(O)C(O)C2O)ccc1O [Compound 9, 1-O-feruloyl-D-glucoside] | 4.06 ± 0.4 | 59.10 ± 2.55 | – | – | – | 13.51 ± 1.62 | 35.36 ± 1.54 | –
55.6 ± 0.78 | 14.1 µM | 23.5 ± 1.43 | 8.04 ± 0.49 (≈ 23.5 µM) | O=C(C=Cc1ccc(O)c(O)c1)OC1OC(CO)C(O)C(O)C1O [Compound 10, 1-O-caffeoyl-D-glucoside] | 73.2 ± 0.99 | – | – | – | 14.07 ± 0.39 | 29.84 ± 1.19 | 50.87 ± 1.30 | inhibition at 2.5 µg/mL [1, 4]: 24.7 ± 0.36%
